Assay results: US12083143B2, “MLK-regulated microRNAs in angiogenesis and tumor development” (University of Massachusetts, priority 2018, dated 2024)

Key:
[1] = tested on: LLC1 cells; experiment: LLC1 lung tumor formation after tail vein injection (experimental metastasis); type: in vivo, mouse; settings: 1×10^6 LLC1 cells with MLK inhibitor or solvent in 200 ul PBS into tail vein of WT mice; lung isolated after 20 days
Experimental: 1×10^6 LLC1 cells, with either MLK inhibitor (URMC-099) or solvent in 200 ul of sterile PBS were injected into the tail vein of WT mice (12-16 week of age). After 20 days of injection Lung was isolated (A) and tumor number were counted (Control—White bar; MLK inhibitor—Black bar) (B).
We also tested the role of MLK inhibitor in Lung tumor formation. […] After 20 days of injection Lung was isolated and tumor number were counted (Control—White bar; MLK inhibitor—Black bar).

[2] = tested on: primary MLEC cells; experiment: qPCR of pro-angiogenic genes in primary MLEC after miR146a mimic transfection, 90 minutes hypoxia; type: cell-based, mouse; settings: mimic transfected 48 hours, 1% O2, versus control
Experimental: Either control or miR146a mimic were transfected into primary MLEC cells for 48 hours. Cells were incubated for 90 minutes in hypoxia chamber in the presence of 1% O2. RNA was isolated and qPCR was performed for genes as noted.
(§1) Total RNA was extracted from cells and tissues with the RNeasy Mini Kit (Qiagen) or TRIzol reagent (Invitrogen), and 1 μg of total RNA was reverse transcribed with oligo(dT) primers for cDNA synthesis. The expression of mRNA was examined by quantitative PCR analysis using a QuantStudio™ 6 Flex Real-Time PCR System (Applied Biosystems). Taqman© assays were used to quantitate Pgf, Adam8, Mmp9, Angptl4, Hprt (Mm00446968—m1) and Gapdh (4352339E-0904021) mRNA (Applied Biosystems). The 2^−ΔΔCT method is used for relative quantification of gene as described elsewhere^5,6. reference genes of Hprt and Gapdh have been used to normalize the PCRs in each sample.

[3] = tested on: mouse lung endothelial cell (MLEC); experiment: qRT-PCR of angiogenesis related genes in WT MLEC after miR146a mimic, 4 hours post hypoxia; type: cell-based; settings: mimic 48 hours, versus control
Experimental: (A-D) mRNA was isolated from WT mouse lung endothelial cell (MLEC) treated either with control or miR146a mimic for 48 hours and qRT-PCR was performed for different angiogenesis related genes after 4 hours post hypoxia
Quiescent monolayers of WT and Mlk2/3−/− primary endothelial cell MLECs were exposed to normoxia (21% O2) or hypoxia (1% O2) for 0-24 h in a hypoxia chamber. After exposure cells were immediately harvested and examined for expression of genes by qPCR or immunoblots.
as §1

Row | Compound | LLC1 tumor formation in vivo (lung tumor number) [1] | expression of pro-angiogenic factors (VEGF, Angptl4, Angpt2, MMP9) by qPCR [2] | expression of pro-angiogenic factors (VEGF, Angptl4, Angpt2, MMP9) by qPCR ([2]; listed as miR146a) | angiogenesis related gene expression by qRT-PCR [3]
1 | CN1CCN(Cc2ccc(-c3cnc4[nH]cc(-c5ccc6[nH]ccc6c5)c4c3)cc2)CC1 [URMC-099] | suppressed LLC1 tumor formation in vivo | – | – | –
2 | ugagaacugaauuccauggguu (SEQ ID NO:3) [miR146a mimic] | – | down-regulated | suppressed the pro-angiogenic factors | mimic the MLK deficient phenotype
